From patent publication US20240336608A1, “IL4I1 INHIBITORS AND METHODS OF USE” (Merck Sharp & Dohme LLC, priority 2023, published 2024)

Target: T1, recombinant IL4I1 (Homo sapiens, UniProt Q96RQ9)
T1 construct: purchased R&D Systems 5684-AO-020
T1 sequence (Q96RQ9 22-567): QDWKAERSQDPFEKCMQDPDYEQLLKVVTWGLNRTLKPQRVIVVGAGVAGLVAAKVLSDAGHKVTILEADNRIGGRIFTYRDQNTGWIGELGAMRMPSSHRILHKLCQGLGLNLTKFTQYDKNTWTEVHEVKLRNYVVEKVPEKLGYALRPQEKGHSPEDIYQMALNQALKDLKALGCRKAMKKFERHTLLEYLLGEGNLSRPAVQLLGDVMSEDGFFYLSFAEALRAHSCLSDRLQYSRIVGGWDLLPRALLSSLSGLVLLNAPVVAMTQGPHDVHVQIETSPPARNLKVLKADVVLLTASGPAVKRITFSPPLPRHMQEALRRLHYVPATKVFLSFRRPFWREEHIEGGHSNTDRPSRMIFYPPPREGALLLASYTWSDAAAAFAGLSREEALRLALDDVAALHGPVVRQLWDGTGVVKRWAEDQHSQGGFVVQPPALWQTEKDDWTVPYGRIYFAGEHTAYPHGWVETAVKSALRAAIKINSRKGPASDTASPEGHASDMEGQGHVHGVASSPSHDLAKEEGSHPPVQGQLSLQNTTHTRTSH
Experiment: IL4I1 Enzymatic Assay (Amplex Red/HRP coupled detection of H2O2, fluorescence)
Assay type: biochemical
Conditions: 1 nM recombinant IL4I1; four-hour pre-incubation with compound; 1 mM each Phe, Tyr, Trp; ten-point titration
In short: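 Recombinant IL4I1 (1 nM final) pre-incubated 4 h at ambient temperature with compound (0.5% DMSO) in 50 mM Hepes pH 7.0, 0.005% Tween20; reaction started with 1 mM each Phe/Tyr/Trp plus excess Amplex Red/HRP, run 120 min. H2O2 read as resorufin fluorescence; EC50 from 10-point four-parameter fit.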

| SMILES | EC50 [nM] |
| --- | --- |
| Cc1ccc(C(=O)NCc2nnc(-c3ccccc3)s2)[nH]1 [Example 17, 5-methyl-N-[(5-phenyl-1,3,4-thiadiazol-2-yl)methyl]-1H-pyrrole-2-carboxamide] | 474 |
| CC(C)(C#N)n1cc(C(=O)NCc2nnc(-c3ccccc3)s2)nn1 [Example 313, 1-(2-cyanopropan-2-yl)-N-((5-phenyl-1,3,4-thiadiazol-2-yl)methyl)-1H-1,2,3-triazole-4-carboxamide] | 26 |
| CC(NC(=O)c1cn(C)nn1)c1nnc(-c2ccccc2)s1 (single isomer, unassigned) [Example 259, 1-methyl-N-(1-(5-phenyl-1,3,4-thiadiazol-2-yl)ethyl)-1H-1,2,3-triazole-4-carboxamide] | 26 |
| CC(C)Cc1cc(C(=O)NCc2nnc(-c3ccccc3)s2)no1 [Example 7, 5-isobutyl-N-[(5-phenyl-1,3,4-thiadiazol-2-yl)methyl]isoxazole-3-carboxamide] | 8 |
| Cc1ccc(-c2cc(C(=O)NCc3nnc(-c4ccccc4)s3)on2)c(C)n1 [Example 283, 3-(2,6-dimethylpyridin-3-yl)-N-((5-phenyl-1,3,4-thiadiazol-2-yl)methyl)isoxazole-5-carboxamide] | 165 |
| O=C(NCc1nnc(-c2ccccc2)s1)c1cn(C2CC(F)(F)C2)nn1 [Example 61, 1-(3,3-difluorocyclobutyl)-N-((5-phenyl-1,3,4-thiadiazol-2-yl)methyl)-1H-1,2,3-triazole-4-carboxamide] | 68 |
| Cc1ccc(-n2cc(C(=O)NCc3nnc(-c4ccccc4)s3)nn2)c(C(C)(C)O)n1 [Example 338, 1-(2-(2-hydroxypropan-2-yl)-6-methylpyridin-3-yl)-N-((5-phenyl-1,3,4-thiadiazol-2-yl)methyl)-1H-1,2,3-triazole-4-carboxamide] | 24 |
| O=C(NCc1nnc(-c2ccccc2)s1)c1cn(C2(CO)CC2)nn1 [Example 159, 1-(1-(hydroxymethyl)cyclopropyl)-N-((5-phenyl-1,3,4-thiadiazol-2-yl)methyl)-1H-1,2,3-triazole-4-carboxamide] | 170 |
| O=C(NCc1nnc(-c2ccccc2)s1)c1cn(C2CC2(F)F)nn1 (single isomer, unassigned) [Example 130, 1-(2,2-difluorocyclopropyl)-N-((5-phenyl-1,3,4-thiadiazol-2-yl)methyl)-1H-1,2,3-triazole-4-carboxamide] | 5 |
| Cc1ccc(-n2cc(C(=O)NCc3nnc(-c4ccc(F)c(F)c4)s3)nn2)c(C)n1 [Example 106, N-((5-(3,4-difluorophenyl)-1,3,4-thiadiazol-2-yl)methyl)-1-(2,6-dimethylpyridin-3-yl)-1H-1,2,3-triazole-4-carboxamide] | 695 |
| Cc1ccc(C(=O)NCc2nnc(-c3ccccc3)s2)s1 [Example 12, 5-methyl-N-[(5-phenyl-1,3,4-thiadiazol-2-yl)methyl]thiophene-2-carboxamide] | 90 |
